Molecules are shown by their SMILES.

The target in this experiment is T1, NK3 receptor (Homo sapiens, UniProt P29371).
T1 construct: expressed in transfected cells; host or cells: CHO cell lines (plasma membranes)
T1 sequence (P29371 1-465): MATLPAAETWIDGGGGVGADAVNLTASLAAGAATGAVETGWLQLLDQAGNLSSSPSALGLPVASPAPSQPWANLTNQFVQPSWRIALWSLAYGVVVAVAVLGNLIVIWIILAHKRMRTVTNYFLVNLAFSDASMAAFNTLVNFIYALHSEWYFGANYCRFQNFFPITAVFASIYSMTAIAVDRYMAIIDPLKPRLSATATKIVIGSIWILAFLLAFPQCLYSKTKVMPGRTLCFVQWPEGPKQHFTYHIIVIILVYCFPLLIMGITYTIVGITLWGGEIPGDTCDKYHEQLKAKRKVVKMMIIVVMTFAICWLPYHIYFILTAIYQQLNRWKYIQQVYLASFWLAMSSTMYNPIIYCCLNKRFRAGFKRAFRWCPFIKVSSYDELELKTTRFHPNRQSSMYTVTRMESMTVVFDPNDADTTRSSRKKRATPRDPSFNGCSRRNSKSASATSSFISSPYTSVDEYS
The experiment is described as follows: NK3 binding affinity, scintillation proximity assay (SPA), 125I [MePhe7]-NKB. As to conditions: membranes from CHO cell lines expressing NK3 receptors; radioligand 125I [MePhe7]-NKB. On the procedure: a) Measurement of NK3 Binding Affinity
The NK3 binding affinity of the compounds of the invention was determined using the following scintillation proximity assay (SPA) (see H. M. Sarau et al, J. Pharmacol. Experimental Therapeutics 1997, 281(3), 1303-1311; H. M. Sarau et al, J. Pharmacol. Experimental Therapeutics 2000, 295(1), 373-381; G. A. M. Giardina et al J. Med. Chem 1999, 42, 1053-1065). Polystyrene Leadseeker WGA-SPA beads (Amersham Biosciences) were mixed with plasma membrane prepared from CHO cell lines expressing NK3 receptors in a bead/membrane ratio of 20:1 (w/w) in assay buffer (75 mM Tris pH 7.8, 75mM NaCl, 4 mM MnCl2, 1 mM EDTA, 0.05% Chaps, 1 mM PMSF). The mixture was placed on ice for 20 minutes to allow the formation of membrane/bead complex before BSA was added to a final concentration of 1%. After another 20 minutes incubation on ice, the bead/membrane complex was washed twice and suspended in assay buffer. ^125I [MePhe7]-NKB was then added to the bead/membrane complex. […] After 2-3 hours incubation at room temperature with shaking, the plates were spun for 2 min at 1100 rpm and measured in Viewlux imager (PerkinElmer) for 5 minutes with a 618-nm filter. Inhibition of the radioactive ligand binding to the NK3 receptor was measured by the reduction of signal. pKi was calculated using Kd of the radioactive ligand determined in a separate experiment.
On the technique in general: Scintillation proximity formats need no separation of bound from free tracer.

For orientation: Ki means a measure of affinity in units of concentration, obtained from inhibition or displacement. Low readings indicate higher affinity, high ones lower affinity. Compound `O=C(N[C@H](c1cccc(F)c1)C1CC1)c1c(CN2CCCC2=O)c(-c2ccccc2)nc2ccccc12` [Example 1, N-[(S)-Cyclopropyl(3-fluorophenyl)methyl]-3-[(2-oxo-1-pyrrolidinyl)methyl]-2-phenyl-4-quinolinecarboxamide] showed a Ki of 3.16 nM.

The record behind these values is US20080103173A1, “Compounds Having Activity At Nk3 Receptor And Uses Thereof In Medicine” (SMITHKLINE BEECHAM CORPORATION, priority 2004, published 2008).
